The values below come from PubChem BioAssay AID463229 (Broad Institute, 2010).

Several values for one entry are separate records, joined by “and”; a condition that tells them apart may be missing. Equal values may be shown once. Activity calls are given as the source filed them.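 Rule for the calls: active = compounds raising the signal whose fitted half-maximal concentration is at or below their top tested dose (cut at about 25 µM in these data); inconclusive = flat fit at 30 to 70% activity, or a poor fit; inactive = the rest.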

This assay deals with INS-1E rat beta cells, no cytokines, CellTiter-Glo ATP, 48 h. The assay is described as follows: ATP level change in INS-1E without cytokines, dose response, counter-screen for beta-cell apoptosis protection project, INS-1E rat cells, ATP luminescence, cherry pick (AID 463229). Background: A counterscreen serves to expose hits that act by an unwanted route or on another target.
The term AC50 denotes the concentration at which the activity in the assay is half-maximal. As to `COc1ccc(OC)c2sc(N(CCCN(C)C)C(=O)c3ccc(S(=O)(=O)N4CCc5ccccc5C4)cc3)nc12`, the AC50 is 2.23 µM. As for `c1ccc(CN2CCN(Cc3c[nH]c4ccccc34)CC2)cc1`, the AC50 was 7.83 µM.

As to `CCC1(c2ccc(F)cc2)NC(=O)N(CC(=O)Nc2ccc(-c3nc4ccc(C)cc4s3)cc2)C1=O` (stereo not given), the AC50 was 12.4 µM. The result for `COc1cc2c(cc1OC)[C@@H]1C(=O)c3ccc4c(c3O[C@@H]1CO2)C[C@H](C(C)C)O4` reads less than 0.195 µM; that for `O=C(N/N=C/c1ccccc1O)/C(=C/c1ccccc1)CCO`, 7.67 µM; that for `CCC(=O)NC(c1ccccc1OC)c1ccc2cccnc2c1O` (stereo not given), 4.29 µM. The result for `[O-]c1ccccc1-[n+]1c(-c2ccccc2)cc(-c2ccccc2)cc1-c1ccccc1` reads 6.87 µM; that for `CC1=C(C)/C(=N\OS(=O)(=O)c2ccccc2)C=CC1=O`, 4.13 µM; that for `CCS(=O)(=O)c1ncc(Cl)c(C(=O)Nc2ccc(S(=O)(=O)N3CCCC(C)C3)cc2)n1` (stereo not given), 6.96 µM. On to `C[C@H]1CCC/C=C/[C@@H]2C[C@H](O)C[C@H]2[C@H](O)/C=C/C(=O)O1`, for which the concentration at half-maximal activity (AC50) is 0.948 µM and 1 µM. The result for `C=C1C(=O)C=C2CN(C(=O)c3ccccc3)[C@@](Cc3ccc(F)cc3)(C(=O)OC)[C@@H]12` reads 2.56 µM. In the case of `CC(=O)c1c(C)oc2ccc(N(C(C)=O)S(=O)(=O)c3cccc4cccnc34)cc12`, the AC50 is 7.79 µM. In the case of `CSc1nc(N)nc2c1ncn2CC(=O)N1CCN(Cc2c(C)cc(C)cc2C)CC1`, the AC50 was 2.65 µM. Regarding `Cn1c(=O)[nH]c(=O)c2c1nc(N1CCN(C(c3ccccc3)c3ccccc3)CC1)n2CCO`, the AC50 was 10.8 µM. The same measure for `Oc1[nH]c(N=C2N=c3ccccc3=N2)c2ccccc12`: 3.44 µM; for `N=c1c2c(-c3ccccc3)c(-c3ccccc3)n(Cc3ccco3)c2ncn1CCCN1CCOCC1`: 16.2 µM.

With `Cc1cc(=O)[nH]c(N/N=C/c2ccccn2)n1`, the AC50 is 5.21 µM. For `CNC[C@H](CC1CCCCC1)NC[C@H](Cc1ccccc1)NCCC12CC3CC(CC(C3)C1)C2`, the AC50 was 4.44 µM. `CCOC(=O)c1cnc(-n2nc(C)cc2C)nc1Nc1ccc(O)cc1`: the AC50 is 1.41 µM. The result for `COc1cccc(-c2nc(-c3ccc(NC(=O)c4cccnc4)cc3)no2)c1` reads 2.14 µM. The same measure for `CC(CCCC(C)(C)O)NC(=O)c1cc(COc2ccc3ncccc3c2)on1` (stereo not given): 8.48 µM; for `Nc1c(N(CCC2=CCCCC2)C(=O)COc2ccc(F)cc2)c(=O)[nH]c(=O)n1Cc1ccccc1`: 4.49 µM; for `COc1ccc(S(=O)(=O)/N=C2\C=C(Nc3ccc(O)cc3)C(=O)c3ccccc32)cc1`: 1.65 µM. As for `Cc1occc1C(=O)N/N=C/c1c(O)ccc2ccccc12`, the AC50 is 7.95 µM.

`Cc1ccc(Nc2c(-c3ccccn3)nc3cc(C)ccn23)cc1`: the AC50 was 7.49 µM. The same measure for `Cc1ccc(C)c(NC(=S)NC(NC(=O)Cc2cccc3ccccc23)C(Cl)(Cl)Cl)c1` (stereo not given): 5.67 µM. As to `Cc1oc2c(c1C(=O)N1CCC(C)CC1)C(=O)c1ccccc1C2=O`, the AC50 was 10.8 µM. Regarding `Cc1ccc(NC(=O)Nc2cccc([N+](=O)[O-])c2)cc1F`, the AC50 is 8.06 µM.

For the molecule `CCC(C)(C)c1ccc(OCCCC[n+]2cccc(C)c2C)c(C(C)(C)CC)c1`, the AC50 is 0.804 µM. For the molecule `COC(=O)c1cc(=O)n(CCc2ccccc2F)c(=Nc2ccc(F)c(Cl)c2)s1`, the AC50 is 11.1 µM.

`c1ccc(/N=C2\N=C(Nc3ccccn3)c3ccccc32)nc1`: the AC50 is 5.52 µM.

As to `O=C(CCC(=O)Nc1ccc(Br)cc1)N/N=C/c1ccccc1O`, the AC50 was 14.6 µM. As for `CC(C)(C)c1cc(CCC(=O)NNC(=S)NC(=O)c2ccccc2)cc(C(C)(C)C)c1O`, the AC50 was 7.17 µM. Regarding `COc1cccc(N2CCN(c3ncnc4c3[nH]c3ccc(F)cc34)CC2C)c1` (stereo not given), the half-maximal activity concentration (AC50) was 3.09 µM. `CC(C)(C)c1cc([N+](=O)[O-])cc(C(C)(C)C)c1O`: the AC50 was 2.8 µM. On to `COc1cc2c(cc1OC)-c1c(OC)c(OC)c(OC)c3ccnc(c13)C2=O`, for which the AC50 is 6.65 µM.

As to `O=C(N/N=C/c1cc(Br)c(O)c(Br)c1O)c1ccc2c(c1)OCCO2`, the AC50 is 8.27 µM. For `CCN(CC)CCOC(=O)c1ccc(N/C=C(/C#N)c2nc(-c3ccc4c(c3)OCO4)cs2)cc1`, the concentration at half-maximal activity (AC50) is 14.2 µM. The result for `O=[N+]([O-])c1ccccc1-c1cc(-c2ccccc2)cc(-c2ccccc2)[n+]1Cc1ccccc1Cl` reads 2.23 µM; that for `COc1ccc(-[n+]2c(-c3ccccc3)cc(-c3ccccc3)cc2-c2ccccc2)cc1`, 1.71 µM; that for `Cc1cc(/C=N/n2cnnc2)c(C)n1-c1ccc(OCc2ccccc2F)cc1`, 4.05 µM.

Turning to `O=c1cc(CSc2ccc(Cl)cc2)nc(-c2ccccn2)[nH]1`, the AC50 is 11.6 µM. The result for `O=C(c1cc2sccc2n1Cc1ccc(F)cc1)N1CCN(c2nc3ccccc3s2)CC1` reads 5.82 µM; that for `CCCCOc1cc(NCc2ccccc2)c2ncn(C(C)C)c2c1`, 7.26 µM. For `Oc1ccccc1/C=N/Nc1ncc(Br)cn1`, the AC50 was 19.7 µM. `Cc1cc(N/N=C/c2ccc(O)cc2O)nc(-n2nc(C)cc2C)n1`: the AC50 was 6.67 µM. `CC(C)c1cccc(C(C)C)c1OC(=O)[C@H]1OC(C(C)(C)C)=C[C@@H]1c1ccccc1`: the AC50 is 7.8 µM. The same measure for `Cc1ccc(NC(=O)c2cc(S(=O)(=O)NCCC3=CCCCC3)ccc2F)cc1`: 7.48 µM.

Regarding `Cc1cc(C)nc(N/N=C2/CCCC/C2=C\c2ccccc2)n1`, the AC50 is 3.72 µM. For `C#CCOCCOCCOCCNc1nc(N2CCN(C(=O)CCCCCCCCCCNC(=O)[C@H](CCCCN)n3cc(C)nn3)CC2)nc(N2CCN(C(=O)CCCCCCCCCCNC(=O)[C@H](CCCN=C(N)N)n3cc(C[C@@H](C)CC)nn3)CC2)n1`, the AC50 is 7.85 µM. On to `COC(=O)C1=C(C)N(Cc2ccccc2)C(=NCc2cccc(C(F)(F)F)c2)N[C@H]1c1cccc(F)c1`, for which the AC50 is 8.07 µM. For the molecule `C=C1C(=O)O[C@@H]2C[C@@H](C)[C@@H]3C=CC(=O)[C@@]3(C)[C@@H](O)[C@H]12`, the AC50 is 2.02 µM. Regarding `Cc1cc(C)n(-c2nc(NCCN(C)C)c3c4c(sc3n2)CCCC4)n1`, the AC50 is 9.54 µM.

For `CCn1cc(/C=C/c2cc[n+](C)cc2)c2ccccc21`, the AC50 was 4.44 µM. With `N=c1c2c(ncn1CCCO)Oc1ccc3ccccc3c1C2c1ccccc1` (stereo not given), the AC50 is > 26 µM (inactive). Consider `CN(Cc1c(F)cccc1Cl)C(=O)c1cc2ccccc2o1`, for which the AC50 is > 26 µM (inactive).

As to `C/C(=N\NC(=O)C(C)n1nc(C)c([N+](=O)[O-])c1C)c1ccccc1O` (stereo not given), the AC50 was 12.5 µM. With `C=C1C(=O)O[C@@H]2C[C@@H](C)[C@@H]3C=CC(=O)[C@@]3(C)[C@@H](OC(=O)CC(=O)O[C@H]3[C@@H]4C(=C)C(=O)O[C@@H]4C[C@@H](C)[C@@H]4C=CC(=O)[C@]43C)[C@H]12`, the AC50 is 0.386 µM. For `O=C(N/N=C/c1cnc(N2CCCCC2)s1)c1ccc(C(F)(F)F)cc1`, the concentration at half-maximal activity (AC50) was 6.66 µM. With `O=C(NNc1ccnc2cc(Cl)ccc12)C1CCCCC1`, the AC50 was 2.53 µM.

With `O=C(Nc1ccc(S(=O)(=O)N2CCOCC2)cc1)c1ccc([N+](=O)[O-])s1`, the half-maximal activity concentration (AC50) was 6.8 µM. Consider `COc1ccc(NC(=O)c2c(Nc3ccccc3)sc(C(=O)c3ccc(F)cc3)c2N)cc1`, for which the AC50 was 2.91 µM. Take `CCCN(CCC)C(=O)c1cc([N+](=O)[O-])cc2c1-c1ccc([N+](=O)[O-])cc1C2=C(C#N)C#N`: the half-maximal activity concentration (AC50) is 14.2 µM. As to `COc1cc(CNC2CCCC2)cc(Cl)c1OCc1ccccc1Cl`, the concentration at half-maximal activity (AC50) is 14.6 µM. In the case of `CCN(CC)S(=O)(=O)c1ccc(N2CCN(c3ccccc3OC)CC2)c(N)c1`, the AC50 was 5.19 µM. As to `Cc1ccc(-c2c(C#N)c(N)n3c(nc4ccccc43)c2C#N)cc1`, the AC50 was 4.1 µM.

Consider `c1ccc(-c2cc(-c3ccccc3)[n+](-c3ccccc3)c(-c3ccccc3)c2)cc1`, for which the AC50 was 2.65 µM. The result for `COCC1CCCCN1C(=O)c1cc(COc2ccc3ncccc3c2)on1` (stereo not given) reads 7.39 µM; that for `O=C(NC(NC(=S)Nc1ccc(Cl)cc1Cl)C(Cl)(Cl)Cl)c1cccc([N+](=O)[O-])c1` (stereo not given), 7.31 µM. For `CN(C)S(=O)(=O)c1ccc(Oc2ccc(S(=O)(=O)N(C)C)cc2)cc1`, the AC50 is 9.29 µM. `O=C(COc1ccc(Cl)cc1)Nc1ccc(C(=O)NCc2cccnc2)cc1`: the AC50 is 0.236 µM. As to `Cc1ccc(OCCN2CCN(c3ncnc4sc(C)c(C)c34)CC2)cc1`, the AC50 was 4.03 µM. Turning to `C1=C(CCNc2ncnc3c2[nH]c2ccccc23)CCCC1`, the AC50 is 0.489 µM. With `Cn1ncc2c(N3CCN(c4ccc(Cl)c(Cl)c4)CC3)ncnc21`, the AC50 was 3.37 µM.

As to `O=C1/C(=C/c2ccc(N3CCOCC3)o2)SC(=Nc2ccccc2)N1CCc1c[nH]c2ccccc12`, the AC50 was > 26 µM (inactive). Consider `C=CCC1(CC=C)CCCN1C(=O)c1cc(COc2ccc(C)nc2)on1`, for which the AC50 was 2.54 µM. The same measure for `COc1cc(/C=N/N=C(N)N)ccc1OCc1ccc(Cl)cc1`: 7.22 µM; for `CN(C)CCCn1cnc2c(c1=N)C(c1ccccc1)c1ccc3ccccc3c1O2` (stereo not given): 7.08 µM. For the molecule `CN(C)C(=O)c1ccc(NC(=O)c2cccc(S(=O)(=O)N3CCCCCC3)c2)cc1`, the AC50 is > 26 µM (inactive). The result for `Cc1ccc(S(=O)(=O)N2CCN(c3ncnc4sccc34)CC2)cc1` reads 8.15 µM.

`O=C(N/N=C\c1ccc([N+](=O)[O-])s1)c1cncc(Br)c1`: the AC50 was 6.53 µM. Consider `CCCCOc1ccc(-c2cc(C(=O)NNC(=S)NCC)c3ccccc3n2)cc1`, for which the AC50 is 6.66 µM. As for `COc1cc([N+](=O)[O-])ccc1NC(=O)CC1SC(=Nc2ccc(F)cc2)N(CCC2=CCCCC2)C1=O` (stereo not given), the AC50 is 4.23 µM. Turning to `CCOC(=O)c1c(NC(=O)C[n+]2ccc(Cc3ccccc3)cc2)sc(C)c1C`, the AC50 was 10.9 µM. As for `CCCCCCn1ccc(=N)cc1`, the AC50 was 3.12 µM. As for `O=C(Nc1cccnc1)c1cccnc1`, the AC50 is 10.9 µM.

For `O=C(N/N=C/c1ccc([N+](=O)[O-])o1)c1cc2ccccc2o1`, the AC50 was 6.22 µM. The result for `Cc1nc2ccccc2c2oc(C(=O)Nc3ccc(C(C)C)cc3)cc12` reads 21.6 µM; that for `COc1ccc(C2c3ccc4ccccc4c3Oc3ncn(CCCN(C)C)c(=N)c32)cc1` (stereo not given), 8.02 µM; that for `Cc1cccc(NC(=S)N/N=C/c2ccc([N+](=O)[O-])s2)c1`, 7.67 µM.
